Measurements taken from article PMC5522529, “Mechanisms of Paradoxical Activation of AMPK by the Kinase Inhibitors SU6656 and Sorafenib” (Cell Chemical Biology, 2017).

Tests used:
Details in all cases: 1 hr
[1] = biological target: T1, α1 kinase domain (α1-KD, residues 1–312) (Homo sapiens, UniProt Q13131); experiment: Activity of FLAG-tagged α1 kinase domain expressed in HEK293 cells; format: cell-based
T1 construct: amplifying residues 1-312 with an N-terminal FLAG-tag; expressed in transfected cells; host or cells: HEK293 (transient transfection, pcDNA5 FRT)
T1 sequence (Q13131 1-312): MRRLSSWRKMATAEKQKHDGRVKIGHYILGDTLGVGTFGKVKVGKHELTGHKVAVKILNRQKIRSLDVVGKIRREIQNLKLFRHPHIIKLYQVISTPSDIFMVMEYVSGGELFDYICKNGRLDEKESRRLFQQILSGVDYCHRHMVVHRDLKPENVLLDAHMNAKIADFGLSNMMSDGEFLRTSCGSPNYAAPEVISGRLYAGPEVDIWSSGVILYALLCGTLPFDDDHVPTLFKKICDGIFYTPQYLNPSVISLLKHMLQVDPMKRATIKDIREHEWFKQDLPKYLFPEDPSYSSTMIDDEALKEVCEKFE
Excerpt: We next expressed an FLAG-tagged α1 kinase domain (α1-KD, residues 1–312) by transient transfection in HEK293 cells, treated the cells with various AMPK activators, and then assayed both the expressed α1-KD (precipitated using anti-FLAG) and endogenous full-length α1 complexes (precipitated using anti-α1 antibodies recognizing an epitope outside the α1-KD). […] This was also observed with A23187, as expected since this ionophore increases intracellular Ca^2+ and activates the alternate upstream kinase CaMKK2.
The α1-KD was precipitated using anti-FLAG and endogenous AMPK complexes using anti-α1 antibody, and activity determined. Results (mean ± SD, n = 2) are expressed relative to activities in DMSO controls. (B) Western blots (n = 2) using the indicated antibodies; samples from experiment in (A). (C) DNAs encoding FLAG-tagged AMPK-α1 (WT or AT mutant) were expressed by transient transfection in HEK293 cells, the cells treated with increasing concentrations of SU6656 for 1 hr, AMPK complexes precipitated with anti-FLAG, and activity measured. Results (mean ± SD, n = 3) are expressed relative to the DMSO control. […] Results (mean ± SD, n = 3) are expressed relative to the DMSO control. **p < 0.01, ***p < 0.001, ****p < 0.0001, ^†††p < 0.001; ns, not significant.
A plasmid encoding the AMPK-α2 kinase domain (α2-KD) was made by amplifying residues 1-310 with 5' BamH1 and 3' Xho1 sites, the resulting PCR product was cloned into pGEX6P2. Point mutations were generated using the Quikchange II site-directed mutagenesis kit (Stratagene) and confirmed by DNA sequencing.

HEK293 cells = experiment: Cellular AMP:ATP and ADP:ATP ratios; format: cell-based, human
Protocol: (B) WT or RG cells were treated as in (A) and nucleotides extracted for analysis (mean ± SD, n = 3). […] (E) (See also Figure S2) Time courses of cellular oxygen uptake before and after addition of the indicated concentrations of sorafenib (SO, μM), SU6656 (100 μM) or phenformin (PHEN, 10 mM) (mean ± SEM, n = 4). (F) Effect of various concentrations of sorafenib or phenformin (10 mM) on activation (top, mean ± SEM, n = 3) or phosphorylation (bottom) of AMPK in cells expressing wild-type AMPK-γ2 (WT) or the R531G mutant AMPK-γ2 (RG). In all panels, asterisks show significant differences from DMSO controls (ns, not significant). In (B), daggers (†) show significant differences between results in WT and RG cells. *p < 0.05, **p < 0.01, ***p < 0.001, ****p < 0.0001, ^††††p < 0.0001.
Cells were incubated for 60 min and AMPK activity measured; results in the top panel are means ± SEM (n = 8), with significant differences from the DMSO control indicated (ns, not significant). The bottom panels show western blots from the same experiment (n = 2). (B) Analysis of AMP:ATP and ADP:ATP ratios from a parallel experiment to that in (A). Results are means ± SEM (n = 3), with significant differences from the DMSO control indicated. *p < 0.05, **p < 0.01, ****p < 0.0001.
The levels of AMP, ADP and ATP were measured using a TSQ Quantiva interfaced with Ultimate 3000 Liquid Chromatography system (ThermoScientific), equipped with a porous graphitic carbon column (HyperCarb 30x1mm ID 3 μm; Part No: C-35003-031030, Thermo-Scientific). Mobile phase buffer A consisted of 0.3% (v/v) formic acid adjusted to pH 9 with ammonia prior to a 1:10 dilution. Mobile phase buffer B was 80% (v/v) acetonitrile. The column was maintained at a controlled temperature of 30°C and was equilibrated with 10% buffer B for 5 minutes at a constant flow rate of 0.06 mL/min. Aliquots of 1 μL of each sample were loaded onto the column and compounds eluted with a linear gradient of 10%-60% buffer B over 9 min. Buffer B was then increased to 100% within 1 min, and the column washed for 5 min with 100% Buffer B. Eluents were sprayed into the TSQ Quantiva using Ion Max NG ion source with ion transfer tube temperature set to 350°C and vaporizer temperature 125°C. The TSQ Quantiva was run in negative mode with a spray voltage of 2600, sheath gas 40 and Aux gas 10. Levels of ATP, ADP and AMP were measured using multiple reactions monitoring mode (MRM) with optimised collision energies and radio frequencies previously determined by infusing pure compounds. Three transitions were used to monitor each of the three compounds, ATP (505.92>158.98, 505.92>408.12 and 505.92>426.12), ADP (426.98>158.98, 426.98>328.78 and 426.98>409.09) and AMP (345.96>134.20, 345.96>151.27 and 345.96>211.12).

AMPK = AMPK activity and Thr172 phosphorylation in HEK293 cells; format: cell-based, human
Protocol: Figure 1 SU6656 Activates AMPK but Not AMPK-Related Kinases (A) HEK293 cells were incubated with the indicated concentrations of SU6656 or berberine (300 μM) for 1 hr; total AMPK activity was assayed in immunoprecipitates (top; mean ± SEM, n = 4), and phosphorylation of AMPK (Thr172), ACC (Ser80), and Raptor (Ser792) analyzed by western blotting (bottom; n = 2). (B) HEK293 cells were incubated with 100 μM SU6656 (1 hr), AMPK complexes containing α1, α2, β1, and β2 immunoprecipitated using isoform-specific antibodies, and AMPK activity measured (mean ± SEM, n = 4). (C) HeLa cells stably expressing LKB1 ([Fogarty et al., 2010]) were incubated with 100 μM SU6656 for 1 hr, AMPK or individual ARKs immunoprecipitated, and kinase assays carried out (antibodies that distinguish MARK2/MARK3 were not available, so they were assayed together). Results are means ± SEM (n = 2). In all panels, asterisks indicate significant differences from controls without SU6656. *p < 0.05, **p < 0.01, ****p < 0.0001. […]
Endogenous AMPK was immunoprecipitated using the specified antibodies (for total AMPK, an equal mixture of anti-α1 and –α2 antibodies) and assayed at 200 μM ATP ([Hardie et al., 2000], [Towler et al., 2008]) using the AMARA peptide ([Dale et al., 1995]) as substrate, except for assays of allosteric activation by AMP (Figure 5A) where the SAMS peptide was used as substrate with 2 mM ATP ([Gowans et al., 2013]). The AMPK-related kinases SIK1, SIK2, SIK3, SNARK, MARK2/3 and MARK4 were immunoprecipitated and assayed as previously described ([Lizcano et al., 2004]) in lysates of Hela cells stably expressing LKB1 ([Fogarty et al., 2010]). LKB1 was assayed using the LKBtide peptide as substrate ([Sakamoto et al., 2004]).

Compound | kinase activity / Thr172 phosphorylation [1] | cellular AMP:ATP and ADP:ATP ratios (HEK293 cells) | AMPK activity / Thr172 phosphorylation (AMPK) | activation of AMPK complexes by subunit isoform (AMPK; 100 μM, isoform-specific antibodies)
COc1ccc2cc3[n+](cc2c1OC)CCc1cc2c(cc1-3)OCO2 [berberine] | failed to activate or cause Thr172 phosphorylation | robustly increased | much smaller degree of AMPK activation | –
CN(C)S(=O)(=O)c1ccc2c(c1)/C(=C/c1cc3c([nH]1)CCCC3)C(=O)N2 [SU6656] | increased kinase activity | no significant effects | caused activation of AMPK | activate AMPK complexes containing the α1, α2, β1, and β2 subunit isoforms
CNC(=O)c1cc(Oc2ccc(NC(=O)Nc3ccc(Cl)c(C(F)(F)F)c3)cc2)ccn1 [sorafenib] | – | increased cellular AMP:ATP and ADP:ATP ratios to a similar or even greater extent than phenformin | activated AMPK | –
